# Experimental data from US9655877B2, “Therapeutic methods for treating inflammation and immune system disorders” (priority 2009, dated 2017).
# Assays:
# Format in all cases: cell-based, murine
# [1] = tested on: TNF-α mRNA and iNOS expression in BV-2 cells; test: TNF-α mRNA and iNOS expression in LPS-treated BV-2 cells, RT-PCR; details: compound 1 hour before LPS for 6 hours
# Method: Semi-quantitative PCR assays of targeted genes were performed in a 25 μl reaction mixture containing 1.5 mM MgCl2, 0.2 mM of each deoxynucleoside triphosphate, 0.25 μM of each primer, 2 units of Taq polymerase (GE Healthcare), and 1 μl of cDNA. PCR primer sets for TNF-α and glyceraldehyde-3-phosphate dehydrogenase (GAPDH) were as follows. TNF-α (upstream: 5′-GGCTCCAGGCGGTGCT TGTCC-3′ (SEQ ID NO:1); downstream: 5′-[…]-3′ (SEQ ID NO:2)), and GAPDH (upstream: 5′-[…]-3′ (SEQ ID NO:3); downstream: 5′-[…]-3′ (SEQ ID NO:4). The thermal cycling condition for PCR was 94° C. for 30 s, 60° C. for 30 s, and 72° C. for 1 min. The cycling reactions were repeated for 24 more cycles.
# The levels of TNF-α mRNA and iNOS mRNA were determined by real-time RT-PCR (Roche 480II). 18S ribosomal RNA (18S) was used as an internal control. All of the real-time RT-PCR probes were obtained from the Universal Probe Library (Roche). All of the samples were performed in duplicate. […] The relative mRNA expression of the targeted genes was calculated by 2^−ΔΔCT and expressed as fold induction.
# To study the role of senkyunolide A in suppressing TNF-α production, 10^5 cells/ml BV-2 cells are seeded in 24-well plates (0.5 ml in each well). […] Total RNA of the treated samples is isolated and subjected to semi-quantitative RT-PCR assays (FIG. 9A) and quantitative RT-PCR assays (FIGS. 9B and C) using specific […] TNF-α primers.
# [2] = tested on: TNF-α mRNA; test: TNF-α mRNA stability assay (actinomycin D) in BV-2 cells; details: compound 1 hour, LPS 2 hours, then 1 μg/ml actinomycin
# Method: 10^5 BV-2 cells were first stimulated by 100 ng/ml LPS. After 2 h of LPS treatment, transcription inhibitor actinomycin D (Act D) at a concentration of 1 ug/ml was added to stop the mRNA synthesis. Total RNA was harvested at indicated time points after actinomycin D treatment (post-Act D). The level of TNF-α mRNA was measured by real-time quantitative RT-PCR. In addition, the effect of senkyunolide A on TNF-α mRNA stability is evaluated. Specifically, 10^5 cells/ml BV-2 cells are seeded in 24-well plates (0.5 ml in each well). Cells are treated with Sen A at various concentrations for 1 hour prior to the addition of LPS for another 2 hours, and further incubated with 1 μg/ml actinomycin for various time periods. Total RNA of the treated samples is isolated and subjected to real-time RT-PCR.
# [3] = tested on: nitrite production in BV-2 cells; test: LPS-induced nitrite (nitric oxide) production in BV-2 cells, Griess reagent; details: 100 ng/ml LPS, 18 hours
# Method: Nitrite levels in the culture media were determined using Griess reagent under manufacturer's instructions (Sigma Aldrich, St. Louis, Mo.). Fresh culture media were used as blanks and the nitrite levels were determined by using a standard sodium nitrite curve.
# The effect of each extract on nitric oxide production is evaluated according to the procedures illustrated as follows. Briefly, murine microglia cell line BV-2 is maintained in Dulbecco's modified Eagle's minimum essential medium (DMEM) supplemented with 10% FBS and 1% penicillin and streptomycin (Invitrogen Life Technologies, Carlsbad, Calif.) at 37° C. in a humidified atmosphere with 5% CO2 in warm air.
# 0.1 M cells/ml BV-2 cells are seeded in 24-well plates (0.5 ml in each well). Cells are treated with 0.05% DMSO; 0.05% DMSO and 100 ng/ml LPS; or 100 ng/ml LPS and 50 μg/ml of an LCX extract for 18 hours, respectively. The culture supernatant is collected. The nitric oxide level is measured using the Griess reagent according to standard manufacturer's instructions (Sigma Aldrich, St. Louis, Mo.), and assessed using the standard sodium nitrite curve.
# The effect of senkyunolide A (Sen A) and Z-ligustilide (Z-Lig) at various concentrations on LPS-induced nitrite production is further evaluated in this Example. Briefly, 0.1 M cells/ml BV-2 cells are seeded in 24-well plates (0.5 ml in each well). Cells are treated with 0.05% DMSO; 0.05% DMSO and 100 ng/ml LPS; 50 μg/ml Sen A/Z-Lig; or 100 ng/ml LPS and Sen A/Z-Lig at a concentration of 1 μg/ml, 5 μg/ml, 10 μg/ml, 25 μg/ml, and 50 μg/ml for 18 hours, respectively. The culture supernatant is collected. The nitric oxide level is measured using the Griess reagent according to standard manufacturer's instructions (Sigma Aldrich, St. Louis, Mo.), and evaluated using the standard sodium nitrite curve.
# [4] = tested on: TNF-α protein production in BV-2 cells; test: LPS-induced TNF-α protein production in BV-2 cells, ELISA; details: 100 ng/ml LPS, 18 hours
# Method: To measure the TNF-α level in cell culture supernatants, BV-2 cells were seeded at 1×10^5 cells/ml in the volume of 0.5 ml in 24-well culture plates. They were co-treated with or without 100 ng/ml LPS in the absence or presence of indicated concentrations of bioactive compounds of LCX for 18 h. In addition, PBMac cells were seeded at 1×10^6 cells/ml in the volume of 0.5 ml in 24-well plates. After incubation, the supernatants were collected and TNF-α levels were determined by ELISA according to the manufacturer's instructions (R&D Systems).
# The role of senkyunolide A (Sen A) and Z-ligustilide (Z-Lig) in suppressing TNF-α production is further evaluated in this Example. Briefly, 5×10^4 cells/ml BV-2 cells are seeded in 24-well plates (0.5 ml in each well). Cells are treated with 0.05% DMSO; 0.05% DMSO and 100 ng/ml LPS; 50 μg/ml Sen A/Z-Lig; or 100 ng/ml LPS and Sen A/Z-Lig at a concentration of 1 μg/ml, 5 μg/ml, 10 μg/ml, 25 μg/ml, and 50 μg/ml for 18 hours, respectively. The culture supernatant is collected and the level of secreted TNF-α is measured by ELISA.
compound,measurement,setting,value
CCCC[C@H]1OC(=O)C2=C1CCC=C2 [senkyunolide A],effect on TNF-α mRNA expression,[1],inhibits TNF-α mRNA
same,effect on iNOS expression,[1],inhibits TNF-α mRNA and iNOS expression
same,effect on TNF-α mRNA stability,[2],destabilizes TNF-α mRNA
same,reduction of TNF-α mRNA half life,[2],43%
same,reduction in nitrite production,[3]; 10 μg/ml,approximately 4 fold
same,reduction in nitrite production,[3]; 25 μg/ml,~20 fold
same,effect on nitrite production,[3]; 50 μg/ml,almost completely inhibits nitrite production
same,reduction in TNF-α production,[4]; 10 μg/ml,approximately 2 fold
same,reduction in TNF-α production,[4]; 25 μg/ml,~4 fold
same,reduction in TNF-α production,[4]; 50 μg/ml,~10 fold
